Source: patent publication EP0359745B1, “GROWTH FACTOR RECEPTOR” (IMPERIAL CANCER RESEARCH TECHNOLOGY LIMITED, priority 1987, dated 1988)
Values belong to the compound of their own block, whether it stands above or below them. Non-standard residues stand in square brackets, D forms with d. Residues, ends and D or L forms follow the SMILES beside them. No end group written: not given here.

What was measured:
Mr 75000-85000 protein = Mr 75000-85000 protein (Mus musculus, UniProt P21729); test: ¹²⁵I-GRP affinity labelling (EGS cross-linking) of the Mr 75000-85000 protein in Swiss 3T3 cells, SDS-PAGE and scanning densitometry; assay type: binding; parameters: endogenous in cells; host or cells: Swiss 3T3 cells (mouse fibroblasts); conditions: for cross-linking of ¹²⁵I-GRP / level of the Mr 75000-85000 protein (in words): summary of Table 1, saturating concentrations of the other mitogens; for Mr 75000-85000 protein % of control: ¹²⁵I-GRP (0.5 nM), 15°C, 2.5 h, 6 mM EGS, additions: GRP 360 nM, GRP (14-27) 30 nM, bombesin 30 nM, litorin 92 nM, neuromedin B 220 nM, [D-Arg¹,D-Pro²,D-Trp^7,9,Leu¹¹] substance P 100 »M, GRP (1-16) 3230 nM, PDGF 5 nM, EGF 83 nM, vasopressin 1000 nM, insulin 1 »g/ml, phorbol 12,13 dibutyrate 2000 nM, substance P 740 nM, substance K 880 nM, somatostatin 610 nM, neurotensin 600 nM
Protocol: After 2.5 h the cells were washed three times at 15°C with phosphate buffered saline (PBS) ad then incubated for 15 min at 15°C In 1 ml of binding medium, pH 7.4 In the presence of the appropriate cross-linking agent at the concentration indicated. The cross-linking agents (EGS, DSS, DSP and BSCOES) were dissolved in dimethyl sulphoxide immediately prior to use and were added to medium to give a final concentration of dimethylsulphoxide of 1-2%. The cultures were rapidly rinsed twice with PBS at 4°C and solubilized in 0.1ml of 2 x sample buffer 0.2 M Tris-HCl, pH 6.8, 10% (w/v) glycerol, 6% sodium dodecyl sulphate (SDS) (w/v) 4% β-mercaptoethanol (v/v) and 2 mM ethylenediaminetetraacetic acid. Samples were immediately heated at 100°C for 3-5 min and analysed by either one or two-dimensional gel electrophoresis.
Slab gel electrophoresis was performed using 7.5% acrylamide in the separating gel ad 5% in the stacking gel, ad 0.1% SDS (31). After electrophoresis gels were stained, destained and dried down onto paper for autoradiography with Fuji X-ray film (Fuji Photo Film Co. Ltd. Japan). Dried gels were exposed to film for 4-8 days. Two-dimensional gel electrophoresis was performed as described by O'Farrell (32) using isoelectric focusing in the 1st dimension and SDS-polyacrylamide gel electrophoresis (SDS-PAGE) (8% polyacrylamide) in the second dimension. The samples prepared for isoelectric focusing containing 1.4% LKB ampholytes, pH 5-7, plus 0.6% LKD ampholytes, pH 3.5-10, 6M urea, and 2% Nonidet P-40. The Mr 75000-85000 band from autoradiograms was scanned using a Joyce-Loebl double beam densitometer and the areas under specific peaks were measured with a Hewlett-Packard digitizer.
After this time some cells were washed four times with cold (4°C) PBS supplemented with 1 mg/ml BSA, solubilized and total cell associated radioactivity was then determined in a gamma counter. […] The cells were then solubilized and samples were analyzed by SDS-PAGE. After electrophoresis, gels were dried, exposed to film and scanned as described in Materials and Methods. The areas under the individual peaks for the Mr 75000-85000 protein are shown as a function of the concentration of the unlabelled peptide and are expressed as a percentage of the control. […] The level of the Mr 75000-85000 protein expressed in arbitrary units is shown as a function of the concentration of the labelled ligand. Inset: autoradiogram of the gel used for scanning; the Mr 75000-85000 and 160,000 bands are indicated by arrows. All other experimental details were as described in Materials and Methods.
(§1) Figure 4. […] Values are expressed as percentage of the specific binding obtained in the absence of antagonists. […] Each point represents the mean of 3 determinations. […] Specific binding (B) is expressed in pmol/10⁶ cells and is shown in a double-reciprocal plot. Each point represents the mean of duplicate determinations. […] After 2 hours, the cultures were washed twice with binding medium then incubated in 1 ml containing 6 mM ethylene glycol bis (succinimidylsuccinate) (EGS) at pH 7.4 for 15 minutes at 15°C. The cultures were then washed twice with cold phosphate-buffered saline and solubilised in 0.1 ml of 2x sample buffer, then immediately heated at 100°C for 5 minutes and electrophoresed on a 10% polyacrylamide gel.
After the incubation period cultures were treated with 6 mM EGS as described in Materials and Methods. Each value is expressed as a percentage of the level of the Mr 75000-85000 protein obtained with no additons (-). Other experimental details are as described in Materials and Methods.

Swiss 3T3 cells [1] = test: GRP-induced DNA synthesis ([³H]thymidine incorporation) in Swiss 3T3 cells; assay type: cell-based, mouse; conditions: for ability to inhibit mitogenesis stimulated by GRP: substance P antagonists tested at 50 »m, ranking in words
Protocol: (§2) Cell culture procedure (33), assays of DNA synthesis by ³H-thymidine incorporation (34) ad ¹²⁵I-GRP binding to intact cells (13) were performed as described previously.
Figure 3. Inhibition of GRP-induced DNA synthesis by [DPro²]spantide (A) and [DPhe⁵]spantide (D). […] After 40 hours DNA synthesis was estimated by [³H]thymidine incorporation into acid-precipitable material. […] Each point represents the mean of duplicate determinations. […] Values are expressed as a percentage of [³H]thymidine incorporation obtained in the absence of antagonists (100% = 8.6 x 10⁵ cpm per dish). Each point represents the mean of 4 determinations.

Swiss 3T3 cells [2] = test: reversal of the inhibition of [¹²⁵I]EGF binding induced by GRP in Swiss 3T3 cells; assay type: cell-based, mouse; conditions: read-out: Half-maximal reversal of inhibition (of [¹²⁵I]EGF binding by GRP); [¹²⁵I]EGF 0.2 nM, GRP 3.6 nM, 1 hour, 37°C
Protocol: (§3) Figure 5. […] Left: Effects of antagonists on [Ca²⁺]i. Quiescent Swiss 3T3 cells grown on Cytodex 2 beads were washed twice with DMEM and incubated for 10 minutes with fura-2 tetracetoxymethyl ester at 1 »m, then washed three times and suspended in 2 ml of electrolyte solution (6) in the fluorimeter at 37°C and stirred. Fluorescence was recorded continuously in a Perkins-Elmer LS5 luminescence spectrometer with an excitation wavelength of 335 nm and emission wavelength of 510 nm. After a period of equilibration, the following additions were made: solvent, S; antagonist A at 5 »m, A, 5 and 20 »m, A, 20; antagonist D at 5»m, D, 5. […] Values are expressed as percentages of the specific binding obtained with [¹²⁵I]EGF alone at 0.2 nM. The non-specific binding was obtained by the addition of 500-fold excess of unlabelled EGF. Each point represents the mean of 6 determinations.

H69 cells = test: growth of SCLC cell line in serum-free medium (cell number, Coulter Counter); assay type: cell-based
Protocol: Figure 6. […] Stock cultures of cell lines H69, H128 and H417 were maintained in RPMI 1640 medium with 10% fetal bovine serum (heat inactivated) in a humidified atmosphere of 10% CO₂:90% air at 37°C. They were passaged every 7 days. Identical growth was obtained in the serum-free medium of RPMI 1640 supplemented with HITES (29) (hydrocortisone, 10 nM; insulin, 5 »g/ml; transferrin, 100 »g/ml; 17β-estradiol, 10 nM; sodium selenite, 30 nM) and 0.25% bovine serum albumin. […] Cell number was determined at intervals over 14 days in a Coulter Counter after disaggregation of cell clumps by syringing through 19G and 21G needles. Each point represents the mean of 3 determinations.
Figure 7. Inhibition of SCLC growth in vitro by [DPro²]spantide and [DPhe⁵]spantide is concentration-dependent. Cultures of H69 cells were washed twice with RPMI 1640 medium then incubated in serum-free medium (as in Figure 6) in the absence (●) or presence of various concentrations of [DPro²]spantide (o,A) and [DPhe⁵]spantide (△,D). Cell number was determined in a Coulter Counter after disaggregation of cell clumps by syringing through 19G and 21 G needles. Samples were incubated for 13 days, when the controls (inset) had achieved 10-fold increase in number, indicated by the arrow. Each point represents the mean (± standard deviation) of 5 determinations.

Swiss 3T3 cells [3] = test: GRP-stimulated rise in cytosolic Ca²⁺ concentration (fura-2 fluorescence) in Swiss 3T3 cells; assay type: cell-based, mouse
Protocol: as §3

GRP receptor [4] = biological target: T1, GRP receptor (Mus musculus, UniProt P21729); test: specific [¹²⁵I]GRP binding to intact Swiss 3T3 cells
T1 construct: endogenous in cells; host or cells: Swiss 3T3 cells (mouse fibroblasts)
Protocol: as §2, §1

GRP receptor [5] = biological target: T1, GRP receptor; conditions: statement in words, earlier work (reference 13); cited from earlier work
Swiss 3T3 cells [6] = conditions: statement in words, earlier work (reference 13); cited from earlier work

T1 sequence (P21729 whole entry): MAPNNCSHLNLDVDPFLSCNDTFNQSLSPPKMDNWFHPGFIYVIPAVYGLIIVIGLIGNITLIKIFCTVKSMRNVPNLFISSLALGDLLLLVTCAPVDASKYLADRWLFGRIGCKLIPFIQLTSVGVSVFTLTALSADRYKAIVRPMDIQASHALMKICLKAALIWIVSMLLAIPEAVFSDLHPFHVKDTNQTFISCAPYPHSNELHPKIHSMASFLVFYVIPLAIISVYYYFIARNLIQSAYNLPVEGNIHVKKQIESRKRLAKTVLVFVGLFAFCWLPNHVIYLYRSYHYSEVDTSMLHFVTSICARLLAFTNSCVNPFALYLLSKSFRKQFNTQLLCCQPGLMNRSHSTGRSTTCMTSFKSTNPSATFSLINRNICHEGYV
Sequence of Mr 75000-85000 protein (P21729 whole entry): as above

Compound: Vasopressin: mitogen for Swiss 3T3 cells
cross-linking of ¹²⁵I-GRP / level of the Mr 75000-85000 protein (in words) (Mr 75000-85000 protein): not substantially affected
Mr 75000-85000 protein % of control (Mr 75000-85000 protein): 94 % of control

Compound: Neurotensin: unrelated factor
Mr 75000-85000 protein % of control (Mr 75000-85000 protein): 93 % of control

Compound: Spantide
antagonist activity (Swiss 3T3 cells [1]; even at 100 uM): no antagonist activity
ability to inhibit mitogenesis stimulated by GRP (Swiss 3T3 cells [1]): less potent than either A or D

affinity of the receptors of [¹²⁵I]GRP (GRP receptor [4]; 10 »m antagonist, double reciprocal plot, number of binding sites unchanged): markedly reduces the affinity
difference in potency (GRP receptor [4]; [DPhe⁵]spantide versus [DPro²]spantide, inhibition of specific [¹²⁵I]GRP binding): 6.1 fold
Compound: CC(C)C[C@H](NC(=O)[C@H](CC(C)C)NC(=O)[C@@H](Cc1c[nH]c2ccccc12)NC(=O)[C@H](Cc1ccccc1)NC(=O)[C@@H](Cc1c[nH]c2ccccc12)NC(=O)[C@H](CCC(N)=O)NC(=O)[C@@H](Cc1ccccc1)NC(=O)[C@@H]1CCCN1C(=O)[C@H](CCCCN)NC(=O)[C@@H]1CCCN1C(=O)[C@H](N)CCCNC(=N)N)C(N)=O [[DPhe⁵]spantide, D-Arg-Pro-Lys-Pro-D-Phe-Gln-D-Trp-Phe-D-Trp-Leu-Leu-NH₂] (H-[dR]PKP[dF]Q[dW]F[dW]LL-NH2)
IC50 (Swiss 3T3 cells [1]; GRP 3.6 nM, 40 hours, Figure 3 right, read-out: Half-maximal inhibition of DNA synthesis): 22 µM
concentration of GRP required to produce half-maximal stimulation of DNA synthesis (Swiss 3T3 cells [1]; antagonist at 20 »m, Figure 3 left): markedly increased
fold more potent than [DPro²]spantide in inhibiting DNA synthesis induced by GRP (Swiss 3T3 cells [1]; ratio of half-maximal concentrations): 5.4 fold
ability to inhibit mitogenesis stimulated by GRP (Swiss 3T3 cells [1]): most potent GRP antagonist
EC50 (Swiss 3T3 cells [2]): 8.7 µM
IC50 (H69 cells; H69 cells, serum-free medium, 13 days, read-out: half-maximal effect (inhibition of growth)): 24 µM
potency of Antagonist D over Antagonist A (H69 cells; H69 growth inhibition): more than 5 fold
rise in [Ca²⁺]i caused by the addition of GRP (Swiss 3T3 cells [3]; GRP (1 nM), antagonist at 5 »m): effective
response to PDGF ([Ca²⁺]i) (Swiss 3T3 cells [3]; antagonist at 5 »m, PDGF at 1 nM, specificity): did not prevent
fold more potent than [DPro²]spantide in this assay (Swiss 3T3 cells [3]; prevention of the GRP-induced rise in [Ca²⁺]i): at least 4 fold

Compound: Somatostatin: neuropeptide
cross-linking of ¹²⁵I-GRP / level of the Mr 75000-85000 protein (in words) (Mr 75000-85000 protein): no effect
Mr 75000-85000 protein % of control (Mr 75000-85000 protein): 97 % of control

IC50 (GRP receptor [4]; read-out: Half-maximal inhibition of binding): 2.3 µM
IC50 (Mr 75000-85000 protein; read-out: Half-maximal inhibition (affinity-labelling of the Mr 75000-85000 protein)): 5.5 µM
Compound: CC(C)C[C@H](NC(=O)[C@H](CC(C)C)NC(=O)[C@@H](Cc1c[nH]c2ccccc12)NC(=O)[C@H](Cc1ccccc1)NC(=O)[C@@H](Cc1c[nH]c2ccccc12)NC(=O)[C@H](CCC(N)=O)NC(=O)[C@@H](Cc1ccccc1)NC(=O)[C@@H]1CCCN1C(=O)[C@H](CCCCN)NC(=O)[C@@H]1CCCN1C(=O)[C@H](N)CCCN=C(N)N)C(N)=O [[DPhe⁵]spantide, D-Arg-Pro-Lys-Pro-D-Phe-Gln-D-Trp-Phe-D-Trp-Leu-Leu-NH₂] (H-[dR]PKP[dF]Q[dW]F[dW]LL-NH2)

Mr 75000-85000 protein % of control (Mr 75000-85000 protein): 0.4 % of control
Compound: GRP (14-27): the 14-27 amino acid fragment of GRP (MYPRGNHWAVGHLM; ends and bridges not checked; UniProt P07492 37-50, looked up, fragment)

Compound: CSCC[C@H](NC(=O)[C@H](CC(C)C)NC(=O)CNC(=O)[C@H](Cc1ccccc1)NC(=O)[C@H](Cc1ccccc1)NC(=O)[C@H](CCC(N)=O)NC(=O)[C@H](CCC(N)=O)NC(=O)[C@@H]1CCCN1C(=O)[C@H](CCCCN)NC(=O)[C@@H]1CCCN1C(=O)[C@@H](N)CCCNC(=N)N)C(N)=O [Substance P]
inhibition of GRP binding to Swiss 3T3 cells (GRP receptor [5]): neither inhibits
stimulation of DNA synthesis (Swiss 3T3 cells [6]): nor stimulates DNA synthesis
cross-linking of ¹²⁵I-GRP / level of the Mr 75000-85000 protein (in words) (Mr 75000-85000 protein): no effect

cross-linking of ¹²⁵I-GRP / level of the Mr 75000-85000 protein (in words) (Mr 75000-85000 protein): no reduction
Mr 75000-85000 protein % of control (Mr 75000-85000 protein): 93 % of control
Compound: GRP (1-16): the 1-16 amino acid fragment of GRP (amino-terminal fragment) (VPLPAGGGTVLTKMYP; Gastrin-releasing peptide; UniProt P07492 24-39, looked up, fragment)
inhibition of GRP binding to Swiss 3T3 cells (GRP receptor [5]): neither inhibits
stimulation of DNA synthesis (Swiss 3T3 cells [6]): nor stimulates DNA synthesis
